The values that follow come from publication PMC7191384, “Multimodal α-Glucosidase and α-Amylase Inhibition and Antioxidant Effect of the Aqueous and Methanol Extracts from the Trunk Bark of Ceiba pentandra” (BioMed Research International, 2020).

Assay [1] relates to BSA oxidation induced by H2O2. As to the kind of experiment: H2O2-induced protein oxidation assay (BSA thiol groups). The arrangement: species or system bovine. On the procedure: (§1) The effect of plant extracts against protein oxidation was evaluated according to the method of Simplicio et al. with some modifications. Zero point five milliliter aliquots of BSA (30 mg/ml) prepared in phosphate buffer saline (50 mM, pH 7.4) were incubated with 0.5 ml of extracts or gallic acid. Fifteen minutes later, 0.5 ml of H2O2 (20 mM) or AAPH (2′,2′-azobis (2-methylpropionamidine) dihydrochloride) solution (50 mM) in another set of experiment, was added to the reaction medium and incubated at 37°C for 30 minutes and 1 hour, respectively. Proteins were precipitated with ammonium sulfate (70%) followed by vigorous shaking and centrifugation at 3000 rpm. The pellet obtained was resuspended in 1.5 ml of PBS, and 0.2 ml of Ellman's reagent was introduced. The level of thiol groups was measured 10 minutes later at 412 nm.

Assay [2] relates to BSA oxidation induced by AAPH. Briefly: AAPH-induced protein oxidation assay (BSA thiol groups). The arrangement: species or system bovine. On the procedure:
as §1

A short description of assay [3]: Superoxide anion scavenging test (PMS-NADH/NBT). On the procedure: Superoxide anions were generated in a phenazine methosulfate- (PMS-) NADH system. The reaction mixture was made of 0.5 ml test solution, 0.95 ml 0.1 M phosphate buffer (pH 7.4), 0.5 ml […] in phosphate buffer (pH 7.4). Extracts were used at concentrations of 1, 3, 10, 30, 100, and 300 μg/ml. Gallic acid was tested at the same concentrations and used as a reference drug. Reduction of nitroblue tetrazolium was monitored at 560 nm on a Helios Epsilon Spectrophotometer (Thermo Fisher Scientific). The test was carried out in triplicate. The percent inhibition was calculated as follows: […]

A further assay has as its target T1, α-glucosidase (Saccharomyces cerevisiae, UniProt P53341).
T1 construct: purchased Sigma-Aldrich Chemical Co. (Taufkirchen, Germany)
Briefly: α-Glucosidase inhibitory test (pNPG). The format is biochemical. The settings on record: according to the efficacy index. On the procedure: The ability of C. pentandra extracts to inhibit the activity of α-glucosidase was assessed according to Kim et al.'s protocol. Shortly, α-glucosidase (1 U/ml) from Saccharomyces cerevisiae was preincubated with 250 μl extracts for 10 minutes. P-nitrophenyl glucopyranoside substrate solution (pNPG, 3 mM) prepared in 20 mM phosphate buffer (pH 6.9) containing 2 mg/ml BSA was added to start the reaction. The reaction mixture was incubated at 37°C for 20 minutes and stopped with 1 ml of Na2CO3 (1 M). α-Glucosidase activity was determined by measuring paranitrophenol released from pNPG at 405 nm. The percent inhibition was calculated as follows: (3) %inhibition=OD control−OD sample/OD control×100.

Assay [4] is described as follows: Hydrogen peroxide scavenging activity. On the procedure: A method previously described by Ruch et al. was used to assess the ability of plant extracts to decompose hydrogen peroxide (H2O2). Briefly, a 40 mM solution of H2O2 prepared in phosphate buffer (pH 7.4) was mixed with graded concentrations (1-300 μg/ml) of extracts or ascorbic acid. After 10 min of incubation, optical densities were read at 230 nm against a blank solution made up of phosphate buffer without H2O2. The percentage of H2O2 scavenging activity was calculated as in the previous test.

T1 sequence (P53341 whole entry): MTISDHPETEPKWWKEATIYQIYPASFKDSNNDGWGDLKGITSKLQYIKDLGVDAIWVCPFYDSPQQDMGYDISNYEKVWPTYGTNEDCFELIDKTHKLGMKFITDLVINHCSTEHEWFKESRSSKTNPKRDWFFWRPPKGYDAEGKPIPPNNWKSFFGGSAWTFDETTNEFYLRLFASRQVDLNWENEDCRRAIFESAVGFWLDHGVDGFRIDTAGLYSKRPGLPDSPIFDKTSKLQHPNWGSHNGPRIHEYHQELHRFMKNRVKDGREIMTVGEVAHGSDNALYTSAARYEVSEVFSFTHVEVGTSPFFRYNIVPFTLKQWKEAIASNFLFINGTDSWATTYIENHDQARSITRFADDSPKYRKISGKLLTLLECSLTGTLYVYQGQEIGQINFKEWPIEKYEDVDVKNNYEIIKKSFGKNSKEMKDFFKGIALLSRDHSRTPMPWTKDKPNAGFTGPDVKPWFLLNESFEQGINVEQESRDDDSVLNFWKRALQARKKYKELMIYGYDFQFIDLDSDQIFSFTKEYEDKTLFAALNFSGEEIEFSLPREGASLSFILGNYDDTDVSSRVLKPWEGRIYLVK

Regarding `O=C(O)c1cc(O)c(O)c(O)c1` [Gallic acid, gallic acid], the “H2O2 protein oxidation EI (efficiency index)” value in assay [1] was 1.74. The “H2O2 protein oxidation IC50” value in assay [1] (BSA, H2O2 20 mM, 37°C, 30 minutes) came to 29.9 µg/mL. Besides, the “AAPH protein oxidation EI (efficiency index)” value in assay [2] is 0.64. Besides, the “AAPH protein oxidation IC50” value in assay [2] (BSA, AAPH 50 mM, 37°C, 1 hour) stood at 90.17 µg/mL. For the same molecule, in assay [3], the “Superoxide anion EI (efficiency index, maximal activity/IC50)” value is 1.43. Moreover, the “Superoxide anion IC50” value in assay [3] (concentrations 1-300 μg/ml) is 55.66 µg/mL.
As to `C[C@H]1O[C@H](O[C@H]2[C@H](O)[C@@H](O)[C@@H](O[C@H]3[C@H](O)[C@@H](O)C(O)O[C@@H]3CO)O[C@@H]2CO)[C@H](O)[C@@H](O)[C@@H]1N[C@H]1C=C(CO)[C@@H](O)[C@H](O)[C@H]1O` (stereo partly shown) [Acarbose, acarbose], on α-glucosidase, the “α-Glucosidase: inhibitory effect, times greater than that of the methanol extract” value worked out at 10 times and the “α-Glucosidase: inhibitory effect, times the magnitude of the aqueous extract” value is reported as “more than 15 times”.
Regarding `O=C1O[C@H]([C@@H](O)CO)C(O)=C1O` [Ascorbic acid, ascorbic acid], in assay [4], the “Hydrogen peroxide EI (efficiency index)” value is given as 4.77. Further, the “Hydrogen peroxide IC50” value in assay [4] (1-300 μg/ml, 10 min incubation) was found to be 13.84 µg/mL.
